# According to patent publication US20140073628A1, “BENZOXAZEPINES ASN INHIBITORS OF P13K/M TOR AND METHODS OF THEIR USE AND MANUFACTURE” (priority 2010, published 2014):
# What was measured:
# mTOR/GbL/Raptor (mTORC1) = mTOR/GbL/Raptor (mTORC1) (Homo sapiens, UniProt P42345); test: mTOR/GbL/Raptor (mTORC1) ELISA assay; format: biochemical; conditions: phosphorylation of 4E-BP1; 0.2 nM mTORC1, 10 μM ATP, 50 nM NHis-tagged 4E-BP1
# Method: mTOR/GbL/Raptor (mTORC1) ELISA Assay
# The measurement of mTORC1 enzyme activity was performed in an ELISA assay format following the phosphorylation of 4E-BP1 protein. All experiments were performed in the 384-well format. Generally, 0.5 μL DMSO containing varying concentrations of the test compound was mixed with 15 μL enzyme solution. Kinase reactions were initiated with the addition of 15 μL of substrates-containing solution. The assay conditions were as follows; 0.2 nM mTORC1, 10 μM ATP and 50 nM NHis-tagged 4E-BP1 in 20 mM Hepes, pH 7.2, 1 mM DTT, 50 mM NaCl, 10 mM MnCl2, 0.02 mg/mL BSA, 0.01% CHAPS, 50 mM β-glycerophosphate. Following an incubation of 120 minutes at ambient temperature, 20 μL of the reaction volume was transferred to a Ni-Chelate-coated 384-well plate. The binding step of the 4E-BP1 protein proceeded for 60 minutes, followed by washing 4 times each with 50 μL of Tris-buffered saline solution (TBS). Anti-phospho-4E-BP1 rabbit-IgG (20 μL, 1:5000) in 5% BSA-TBST (0.2% Tween-20 in TBS) was added and further incubated for 60 minutes. Incubation with a secondary HRP-tagged anti-IgG was similarly performed after washing off the primary antibody (4 washes of 50 μL). Following the final wash step with TBST, 20 μL of SuperSignal ELISA Femto (Pierce Biotechnology) was added and the luminescence measured using an EnVision plate reader.
# PI3Kα = PI3Kα (Homo sapiens, UniProt P42336); test: PI3K biochemical assay (PI3K-alpha, luciferase-luciferin ATP consumption); conditions: 3 nM enzyme, 1 μM ATP, 10 μM PIP2; percent of ATP consumed
# PI3Kα, sequence (P42336 whole entry): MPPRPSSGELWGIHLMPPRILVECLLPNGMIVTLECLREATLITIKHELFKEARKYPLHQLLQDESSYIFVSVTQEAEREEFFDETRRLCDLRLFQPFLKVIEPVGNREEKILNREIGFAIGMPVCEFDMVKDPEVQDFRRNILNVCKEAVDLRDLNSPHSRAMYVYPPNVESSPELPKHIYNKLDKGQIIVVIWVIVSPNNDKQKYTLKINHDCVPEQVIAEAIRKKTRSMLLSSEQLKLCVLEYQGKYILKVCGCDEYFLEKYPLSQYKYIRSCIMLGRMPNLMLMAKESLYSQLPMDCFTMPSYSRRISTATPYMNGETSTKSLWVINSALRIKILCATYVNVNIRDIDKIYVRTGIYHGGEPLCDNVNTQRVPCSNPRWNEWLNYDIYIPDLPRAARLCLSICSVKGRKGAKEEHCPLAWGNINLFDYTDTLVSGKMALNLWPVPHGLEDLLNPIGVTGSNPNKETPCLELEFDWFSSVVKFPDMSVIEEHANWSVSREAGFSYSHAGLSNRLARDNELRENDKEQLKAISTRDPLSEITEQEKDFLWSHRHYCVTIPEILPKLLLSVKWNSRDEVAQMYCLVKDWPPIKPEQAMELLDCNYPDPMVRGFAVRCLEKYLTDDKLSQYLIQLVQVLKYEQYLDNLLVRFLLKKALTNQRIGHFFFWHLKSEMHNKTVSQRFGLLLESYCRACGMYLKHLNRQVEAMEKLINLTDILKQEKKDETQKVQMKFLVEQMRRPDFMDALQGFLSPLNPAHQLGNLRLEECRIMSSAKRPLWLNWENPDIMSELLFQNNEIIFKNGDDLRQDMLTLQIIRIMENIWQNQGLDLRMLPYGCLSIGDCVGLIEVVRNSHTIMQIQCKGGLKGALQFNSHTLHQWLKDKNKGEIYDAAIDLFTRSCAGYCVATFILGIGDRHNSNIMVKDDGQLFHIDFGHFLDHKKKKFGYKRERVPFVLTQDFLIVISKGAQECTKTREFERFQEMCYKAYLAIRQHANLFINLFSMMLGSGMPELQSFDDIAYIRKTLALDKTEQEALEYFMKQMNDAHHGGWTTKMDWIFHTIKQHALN
# PI3Kα, sequence (P27986 whole entry partner): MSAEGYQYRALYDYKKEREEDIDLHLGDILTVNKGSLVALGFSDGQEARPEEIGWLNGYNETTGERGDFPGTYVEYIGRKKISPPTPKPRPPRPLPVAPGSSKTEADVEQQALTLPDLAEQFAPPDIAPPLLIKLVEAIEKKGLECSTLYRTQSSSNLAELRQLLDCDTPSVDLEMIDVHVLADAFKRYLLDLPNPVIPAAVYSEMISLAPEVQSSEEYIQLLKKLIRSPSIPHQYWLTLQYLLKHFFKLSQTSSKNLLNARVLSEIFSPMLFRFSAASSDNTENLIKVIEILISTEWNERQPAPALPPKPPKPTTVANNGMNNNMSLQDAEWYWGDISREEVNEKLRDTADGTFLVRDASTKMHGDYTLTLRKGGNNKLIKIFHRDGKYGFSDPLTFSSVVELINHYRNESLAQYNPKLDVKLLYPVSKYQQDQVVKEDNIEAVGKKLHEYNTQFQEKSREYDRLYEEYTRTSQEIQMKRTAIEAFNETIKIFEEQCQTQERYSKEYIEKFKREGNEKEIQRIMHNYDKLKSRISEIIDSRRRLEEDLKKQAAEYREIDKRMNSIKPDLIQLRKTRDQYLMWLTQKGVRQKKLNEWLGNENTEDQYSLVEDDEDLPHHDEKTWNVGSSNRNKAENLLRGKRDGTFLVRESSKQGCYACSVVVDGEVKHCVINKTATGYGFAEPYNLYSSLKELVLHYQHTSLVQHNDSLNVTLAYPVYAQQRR
# Method: PI3Kα activity was measured as the percent of ATP consumed following the kinase reaction using luciferase-luciferin-coupled chemiluminescence. Reactions were conducted in 384-well white, medium binding microtiter plates (Greiner). Kinase reactions were initiated by combining test compounds, ATP, substrate (PIP2), and kinase in a 20 μL volume in a buffer solution. The standard PI3Kalpha assay buffer was composed 50 mM Tris, pH 7.5, 1 mM EGTA, 10 mM MgCl2, 1 mM DTT and 0.03% CHAPS. The standard assay concentrations for enzyme, ATP, and substrate were 3 nM, 1 μM, and 10 μM, respectively. The reaction mixture was incubated at ambient temperature for approximately 2 h. Following the kinase reaction, a 10 μL aliquot of luciferase-luciferin mix (Promega Kinase-Glo) was added and the chemiluminescence signal measured using a Victor2 or EnVision (Perkin Elmer). Total ATP consumption was limited to 40-60% and IC50 values of control compounds correlate well with literature references. Substituting PI3Kα with PI3Kβ, PI3Kγ, or […], the inhibitory activity of the compounds for the other isoforms of PI3K were measured. For the PI3Kβ and PI3Kδ assays, enzyme concentrations were 10 nM and 4 nM, respectively. For the PI3Kγ assay, enzyme concentration was 40 nM, the incubation time was 1 h, and the concentration of MgCl2 in the assay buffer was 5 mM.
IC50 (mTOR/GbL/Raptor (mTORC1)) [nM],IC50 (PI3Kα) [nM],Structure (SMILES)
100 to 500,500 to 2500,"Cc1nc2cc(-c3ccc4c(c3)CN(c3nc(NC(C)C)nc(C)c3Cc3ccc(F)cc3)CCO4)ccc2[nH]1 [Compound 19, 5-[(4-fluorophenyl)methyl]-4-methyl-6-[7-(2-methyl-1H-benzimidazol-5-yl)-2,3-dihydro-1,4-benzoxazepin-4(5H)-yl]-N-(1-methylethyl)pyrimidin-2-amine]"
500 to 2500,500 to 2500,"Cc1cc(N2CCOc3ccc(-c4ccc5[nH]cnc5c4)cc3C2)nc(N)n1 [Compound 43, 4-[7-(1H-benzimidazol-5-yl)-2,3-dihydro-1,4-benzoxazepin-4(5H)-yl]-6-methylpyrimidin-2-amine]"
